Test results from ChEMBL document CHEMBL1135631, “Design and evaluation of affinity labels of functionalized amino acid anticonvulsants” (J Med Chem, 2002).

Experiments:
[1] = Neurologic toxicity using rotarod test in mice after intraperitoneal administration; type: organism-based; conditions: mouse, in vivo, ip
Mus musculus = assay: (§1) Anticonvulsant activity using MES test in mice after intraperitoneal administration; type: functional; conditions: ip
[2] = Neurologic toxicity using rotarod test in rat after oral administration; type: organism-based; conditions: in vivo
Rattus norvegicus = assay: Anticonvulsant activity using MES test in rat after oral administration; type: functional
[3] = Protective index as the ratio of TD50 value to that of ED50 value in rat.; type: functional
[4] = Protective index as the ratio of TD50 value to that of ED50 value in mice.; type: functional
[5] = target: Metabotropic glutamate receptor 1 (Rattus norvegicus) (UniProt P23385); assay: as §1; type: functional, organism-based; conditions: Mus musculus; target entry is the homologue from another species
Chain of Metabotropic glutamate receptor 1 (Rattus norvegicus) (P23385 19-1199 limits assumed): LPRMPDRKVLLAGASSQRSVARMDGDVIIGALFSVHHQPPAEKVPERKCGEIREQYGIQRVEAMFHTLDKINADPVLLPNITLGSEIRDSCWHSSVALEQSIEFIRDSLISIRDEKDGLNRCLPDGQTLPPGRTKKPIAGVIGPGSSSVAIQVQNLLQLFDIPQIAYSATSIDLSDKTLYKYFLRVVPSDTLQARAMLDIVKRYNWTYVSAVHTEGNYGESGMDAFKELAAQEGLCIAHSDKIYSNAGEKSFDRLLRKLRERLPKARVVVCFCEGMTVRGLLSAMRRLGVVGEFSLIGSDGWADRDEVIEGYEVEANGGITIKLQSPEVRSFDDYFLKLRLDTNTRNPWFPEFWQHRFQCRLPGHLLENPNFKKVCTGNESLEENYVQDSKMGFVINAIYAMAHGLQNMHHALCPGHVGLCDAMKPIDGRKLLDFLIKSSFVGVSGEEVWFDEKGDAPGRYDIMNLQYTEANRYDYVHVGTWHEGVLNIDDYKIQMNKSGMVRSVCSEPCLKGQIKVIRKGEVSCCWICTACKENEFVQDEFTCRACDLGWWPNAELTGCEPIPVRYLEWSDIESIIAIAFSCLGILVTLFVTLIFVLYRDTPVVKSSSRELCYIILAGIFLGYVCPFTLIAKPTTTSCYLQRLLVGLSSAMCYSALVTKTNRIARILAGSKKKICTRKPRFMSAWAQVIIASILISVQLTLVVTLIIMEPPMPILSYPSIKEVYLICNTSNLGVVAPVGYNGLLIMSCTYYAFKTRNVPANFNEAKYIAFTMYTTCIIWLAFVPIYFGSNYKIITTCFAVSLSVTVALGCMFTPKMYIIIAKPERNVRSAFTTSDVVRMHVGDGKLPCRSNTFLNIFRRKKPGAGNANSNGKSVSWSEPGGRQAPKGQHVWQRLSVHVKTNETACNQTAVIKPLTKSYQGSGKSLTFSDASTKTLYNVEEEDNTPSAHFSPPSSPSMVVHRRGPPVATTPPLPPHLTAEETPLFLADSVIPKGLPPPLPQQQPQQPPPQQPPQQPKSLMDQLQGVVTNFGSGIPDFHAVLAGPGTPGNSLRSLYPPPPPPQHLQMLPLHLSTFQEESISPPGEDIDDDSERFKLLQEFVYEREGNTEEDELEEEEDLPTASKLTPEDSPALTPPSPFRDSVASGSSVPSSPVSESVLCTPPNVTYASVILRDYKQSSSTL

Structure (SMILES)	TD50 [1]	ED50 (Mus musculus)	TD50 [2]	ED50 (Rattus norvegicus)	PI [3]	PI [4]	ED50 [5]
CC(=O)NC(CCCCN=C=S)C(=O)NCc1ccccc1 (racemic)	> 30 mg/kg	> 30 mg/kg	> 30 mg/kg	> 30 mg/kg			
COC[C@H](NC(=O)CBr)C(=O)NCc1ccccc1	> 30 mg/kg	> 30 mg/kg					
CCCC(CCC)C(=O)O [VALPROIC ACID]		270 mg/kg					
CCC1(c2ccccc2)C(=O)NC(=O)NC1=O [PHENOBARBITAL]		22 mg/kg		9.1 mg/kg			
COC[C@@H](NC(=O)CBr)C(=O)NCc1ccccc1	> 30 mg/kg	> 300 mg/kg					
C=CC(=O)NC(COC)C(=O)NCc1ccccc1 (racemic)	> 300 mg/kg	> 100 mg/kg	> 30 mg/kg	> 30 mg/kg			
COC[C@@H](NC(C)=O)C(=O)NCc1ccc(N=C=S)cc1	47 mg/kg	24 mg/kg	> 250 mg/kg	4.2 mg/kg	>59	2	
COC[C@H](NC(C)=O)C(=O)NCc1ccccc1	> 300 mg/kg		> 30 mg/kg	> 30 mg/kg			
CCCC(NC(C)=O)C(=O)NCc1ccccc1 (racemic)	160 mg/kg	38 mg/kg	> 30 mg/kg	30 mg/kg	>30	4.2	
COCC(NC(C)=O)C(=O)NCc1ccccc1 (racemic)			37 mg/kg		101	5.2	
COC[C@H](NC(C)=O)C(=O)NCc1ccc(N=C=S)cc1	> 30 mg/kg	> 100 mg/kg	> 30 mg/kg	> 180 mg/kg			
COC[C@@H](NC(C)=O)C(=O)NCc1ccccc1 [LACOSAMIDE]			> 500 mg/kg		>128	6	
COC[C@@H](NC(C)=O)C(=O)NCc1cccc(N=C=S)c1	120 mg/kg		> 250 mg/kg	28 mg/kg	>9	1.6	74 mg/kg
O=C1NC(=O)C(c2ccccc2)(c2ccccc2)N1 [PHENYTOIN]				30 mg/kg			
CCOCC(NC(C)=O)C(=O)NCc1ccccc1 (racemic)		17 mg/kg					
COC[C@H](NC(C)=O)C(=O)NCc1cccc(N=C=S)c1	> 100 mg/kg	> 100 mg/kg	> 150 mg/kg	> 150 mg/kg			
